Target: Human TASK-1 channels (Homo sapiens (Human), UniProt O14649)
Test: Determination of the activity on the TASK-1 channel in Xenopus oocytes (two-microelectrode voltage clamp)
Assay type: cell-based
Conditions: for IC50: human TASK-1 expressed in Xenopus oocytes, room temperature, read-out: IC50 value for TASK-1 inhibition
Method in brief: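 Xenopus oocytes were injected with human TASK-1 cRNA and recorded two days later by two-microelectrode voltage clamp, holding at −90 mV with 500 ms steps to 40 mV. Superfusion used ND96, pH 7.4, at room temperature, with rising compound concentrations; percentage inhibition of control current was fitted to a dose-response curve for IC50.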

Chain of Human TASK-1 channels (O14649 whole entry): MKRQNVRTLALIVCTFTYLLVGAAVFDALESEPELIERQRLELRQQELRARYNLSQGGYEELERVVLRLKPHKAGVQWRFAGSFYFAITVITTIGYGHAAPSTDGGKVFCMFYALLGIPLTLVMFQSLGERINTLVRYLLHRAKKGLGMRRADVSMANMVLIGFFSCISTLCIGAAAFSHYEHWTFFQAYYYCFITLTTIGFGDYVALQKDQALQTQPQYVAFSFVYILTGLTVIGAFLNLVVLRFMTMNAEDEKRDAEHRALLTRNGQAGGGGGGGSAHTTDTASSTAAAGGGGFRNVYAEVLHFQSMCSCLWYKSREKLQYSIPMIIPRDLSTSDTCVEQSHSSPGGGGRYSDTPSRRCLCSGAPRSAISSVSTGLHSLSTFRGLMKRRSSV

| IC50 [µM] | inhibition at 5 µM (compound concentration 5 μM) [%] | Compound |
| --- | --- | --- |
| 0.08 |  | CC[C@@H](NC(=O)c1cc(C(=O)NCc2nccs2)c2n1CCCC2)c1ccccc1 [16md, 5,6,7,8-Tetrahydro-indolizine-1,3-dicarboxylic acid 3-[((R)-1-phenyl-propyl)-amide] 1-[(thiazol-2-ylmethyl)-amide]] |
| 2.2 |  | CC[C@@H](NC(=O)c1cc(C(=O)N[C@H](C)C2CC2)n2c1COCC2)c1ccc(C(F)(F)F)nc1 [16nz, 3,4-Dihydro-1H-pyrrolo[2,1-c][1,4]oxazine-6,8-dicarboxylic acid 6-[((R)-1-cyclopropyl-ethyl)-amide] 8-{[(R)-1-(6-trifluoromethyl-pyridin-3-yl)-propyl]-amide}] |
| 0.17 |  | CC[C@@H](NC(=O)c1cc(C(=O)NC(C)c2ncccn2)n2c1COCC2)c1ccc(F)cc1Cl (stereo partly drawn) [16np, 3,4-Dihydro-1H-pyrrolo[2,1-c][1,4]oxazine-6,8-dicarboxylic acid 8-{[(R)-1-(2-chloro-4-fluoro-phenyl)-propyl]-amide} 6-[(1-pyrimidin-2-yl-ethyl)-amide]] |
| 0.29 |  | CC[C@@H](NC(=O)c1cc(C(=O)N2CCC[C@@H]2C)c2n1CCOC2)c1ccccc1C(F)(F)F [16ni, 8-((S)-2-Methyl-pyrrolidine-1-carbonyl)-3,4-dihydro-1H-pyrrolo[2,1-c][1,4]oxazine-6-carboxylic acid [(R)-1-(2-trifluoromethyl-phenyl)-propyl]-amide] |
| 0.058 |  | CC[C@@H](NC(=O)c1cc(C(=O)N[C@@H](C)c2ccc(F)cc2)n2c1CCCC2)c1ccccc1 [16lt, 5,6,7,8-Tetrahydro-indolizine-1,3-dicarboxylic acid 3-{[(S)-1-(4-fluoro-phenyl)-ethyl]-amide} 1-[((R)-1-phenyl-propyl)-amide]] |
| 0.2 |  | CC[C@H](NC(=O)c1cc(C(=O)N[C@H](C)c2ccc(F)cc2)c2n1CCOC2)c1ncccn1 [16nw, 3,4-Dihydro-1H-pyrrolo[2,1-c][1,4]oxazine-6,8-dicarboxylic acid 8-{[(R)-1-(4-fluoro-phenyl)-ethyl]-amide} 6-[((S)-1-pyrimidin-2-yl-propyl)-amide]] |
|  | 72 | CCN(Cc1nnn(C)n1)C(=O)c1cc(C(=O)N[C@H](C)c2ccc(F)cc2)n2c1COCC2 [16rt, 3,4-Dihydro-1H-pyrrolo[2,1-c][1,4]oxazine-6,8-dicarboxylic acid 8-[ethyl-(2-methyl-2H-tetrazol-5-ylmethyl)-amide] 6-{[(R)-1-(4-fluoro-phenyl)-ethyl]-amide}] |
| 0.099 |  | CC[C@@H](NC(=O)c1cc(C(=O)N2CCC[C@@H]2C)n2c1COCC2)c1ncccc1Cl [16pf] |
| 0.42 |  | CC(C)[C@@H](NC(=O)c1cc(C(=O)NCc2cnccn2)c2n1CCOC2)c1ccc(F)cc1 [16lo, 3,4-Dihydro-1H-pyrrolo[2,1-c][1,4]oxazine-6,8-dicarboxylic acid 6-{[(R)-1-(4-fluoro-phenyl)-2-methyl-propyl]-amide} 8-[(pyrazin-2-ylmethyl)-amide]] |
| 0.2 |  | CC(C)[C@@H](NC(=O)c1cc(C(=O)N2CCC[C@@H]2C)c2n1CCOC2)c1ccc(F)cc1 [16lj, 8-((S)-2-Methyl-pyrrolidine-1-carbonyl)-3,4-dihydro-1H-pyrrolo[2,1-c][1,4]oxazine-6-carboxylic acid [(R)-1-(4-fluoro-phenyl)-2-methyl-propyl]-amide] |

Further lines, the compound ahead of its results:

| Compound | IC50 [µM] | inhibition at 5 µM (compound concentration 5 μM) [%] |
| --- | --- | --- |
| CC[C@@H](NC(=O)c1cc(C(=O)N[C@H](CC)c2cnc(OC)cn2)n2c1COCC2)c1ccccc1 [16hy, 3,4-Dihydro-1H-pyrrolo[2,1-c][1,4]oxazine-6,8-dicarboxylic acid 6-{[(R)-1-(5-methoxy-pyrazin-2-yl)-propyl]-amide} 8-[((R)-1-phenyl-propyl)-amide]] | 0.041 |  |
| CC(C)[C@@H](NC(=O)c1cc(C(=O)N2CCC[C@@H]2C)n2c1COCC2)c1ccc(C#N)nc1 [16am, 6-((S)-2-Methyl-pyrrolidine-1-carbonyl)-3,4-dihydro-1H-pyrrolo[2,1-c][1,4]oxazine-8-carboxylic acid [(R)-1-(6-cyano-pyridin-3-yl)-2-methyl-propyl]-amide] | 0.92 |  |
| CC[C@@H](NC(=O)c1cc(C(=O)NC(C)C)n2c1COCC2)c1ccccc1 [16ge, 3,4-Dihydro-1H-pyrrolo[2,1-c][1,4]oxazine-6,8-dicarboxylic acid 6-isopropylamide 8-[((R)-1-phenyl-propyl)-amide]] | 0.69 |  |
| CC[C@@H](NC(=O)c1cc(C(=O)N2CCC[C@@H]2C)n2c1COCC2)c1c(F)cc(C(F)(F)F)cc1F [16cl, 6-((S)-2-Methyl-pyrrolidine-1-carbonyl)-3,4-dihydro-1H-pyrrolo[2,1-c][1,4]oxazine-8-carboxylic acid [(R)-1-(2,6-difluoro-4-trifluoromethyl-phenyl)-propyl]-amide] | 0.05 |  |
| C[C@@H](NC(=O)c1cc(C(=O)N[C@H](C)c2ccc(F)cc2)n2c1COCC2)c1cccc(F)c1 [16do, 3,4-Dihydro-1H-pyrrolo[2,1-c][1,4]oxazine-6,8-dicarboxylic acid 6-{[(R)-1-(4-fluoro-phenyl)-ethyl]-amide} 8-{[(R)-1-(3-fluoro-phenyl)-ethyl]-amide}] | 0.19 |  |
| CC[C@H](NC(=O)c1cc(C(=O)N2CCC[C@@H]2C)n2c1COCC2)c1cnc(C(F)(F)F)cc1C(F)(F)F [16bx, 6-((S)-2-Methyl-pyrrolidine-1-carbonyl)-3,4-dihydro-1H-pyrrolo[2,1-c][1,4]oxazine-8-carboxylic acid [(S)-1-(4,6-bis-trifluoromethyl-pyridin-3-yl)-propyl]-amide] | 0.48 |  |
| CC[C@@H](NC(=O)c1cc(C(=O)N[C@H](CC)c2ccccc2)n2c1COCC2)c1ccc(OC)nc1 [16jo, 3,4-Dihydro-1H-pyrrolo[2,1-c][1,4]oxazine-6,8-dicarboxylic acid 8-{[(R)-1-(6-methoxy-pyridin-3-yl)-propyl]-amide} 6-[((R)-1-phenyl-propyl)-amide]] | 0.25 |  |
| CC[C@@H](NC(=O)c1cc(C(=O)NCc2ccc(CC(=O)OC)cc2)n2c1COCC2)c1ccccc1 [16is, [4-({[8-((R)-1-Phenyl-propylcarbamoyl)-3,4-dihydro-1H-pyrrolo[2,1-c][1,4]oxazine-6-carbonyl]-amino}-methyl)-phenyl]-acetic acid methyl ester] | 1.7 |  |
| CC[C@@H](NC(=O)c1cc(C(=O)N2CCC[C@@H]2C)n2c1COCC2)c1ncc(C(F)(F)F)cn1 [16bh, 6-((S)-2-Methyl-pyrrolidine-1-carbonyl)-3,4-dihydro-1H-pyrrolo[2,1-c][1,4]oxazine-8-carboxylic acid [(R)-1-(5-trifluoromethyl-pyrimidin-2-yl)-propyl]-amide] | 0.92 |  |
| CC[C@@H](NC(=O)c1cc(C(=O)Nc2nc(C)c(C)s2)c2n1CCOC2)c1ccccc1 [16ju, 3,4-Dihydro-1H-pyrrolo[2,1-c][1,4]oxazine-6,8-dicarboxylic acid 8-[(4,5-dimethyl-thiazol-2-yl)-amide] 6-[((R)-1-phenyl-propyl)-amide]] | 0.94 |  |
| CCO[C@H]1CCN(C(=O)c2cc(C(=O)N[C@H](CC)c3ccccc3)c3n2CCOC3)C1 [16es, 6-((S)-3-Ethoxy-pyrrolidine-1-carbonyl)-3,4-dihydro-1H-pyrrolo[2,1-c][1,4]oxazine-8-carboxylic acid ((R)-1-phenyl-propyl)-amide] | 1.8 |  |
| CC[C@H](NC(=O)c1cc(C(=O)N[C@H](CC)c2ccccc2)n2c1COCC2)c1ncccn1 [16ke, 3,4-Dihydro-1H-pyrrolo[2,1-c][1,4]oxazine-6,8-dicarboxylic acid 6-[((R)-1-phenyl-propyl)-amide] 8-[((S)-1-pyrimidin-2-yl-propyl)-amide]] | 0.22 |  |
| CC[C@@H](NC(=O)c1cc(C(=O)N2CCC[C@@H]2C)n2c1COCC2)c1ccc(Cl)c(C(F)(F)F)c1 [16cs, 6-((S)-Methyl-pyrrolidine-1-carbonyl)-3,4-dihydro-1H-pyrrolo[2,1-c][1,4]oxazine-8-carboxylic acid [(R)-1-(4-chloro-3-trifluoromethyl-phenyl)-propyl]-amide] | 0.29 |  |
| CC[C@@H](NC(=O)c1cc(C(=O)NC(C2CC2)C2CC2)n2c1COCC2)c1ccccc1 [16hb, 3,4-Dihydro-1H-pyrrolo[2,1-c][1,4]oxazine-6,8-dicarboxylic acid 6-dicyclopropylmethyl-amide 8-[((R)-1-phenyl-propyl)-amide]] | 0.013 |  |
| CC[C@@H](NC(=O)c1cc(C(=O)N[C@H](C)c2ccc(F)cc2)n2c1COCC2)c1ncccn1 [16dz, 3,4-Dihydro-1H-pyrrolo[2,1-c][1,4]oxazine-6,8-dicarboxylic acid 6-{[(R)-1-(4-fluoro-phenyl)-ethyl]-amide} 8-[((R)-1-pyrimidin-2-yl-propyl)-amide]] | 0.22 |  |
| CC[C@@H](NC(=O)c1cc(C(=O)N2CCC[C@@H]2C)c2n1CSC2)c1ccccc1 [16kx, 7-((S)-2-Methyl-pyrrolidine-1-carbonyl)-1H-pyrrolo[1,2-c]thiazole-5-carboxylic acid ((R)-1-phenyl-propyl)-amide] | 0.1 |  |
| CCOC(=O)C[C@H]1CCCN1C(=O)c1cc(C(=O)N[C@H](C)c2ccc(F)cc2)n2c1COCC2 [16dl, ((R)-1-{6-[(R)-1-(4-Fluoro-phenyl)-ethylcarbamoyl]-3,4-dihydro-1H-pyrrolo[2,1-c][1,4]oxazine-8-carbonyl}-pyrrolidin-2-yl)-acetic acid ethyl ester] | 0.062 |  |
| CCOC(=O)C[C@H]1CCCN1C(=O)c1cc(C(=O)N[C@H](CC)c2ccccc2)c2n1CCOC2 [16fi, {(R)-1-[8-((R)-1-Phenyl-propylcarbamoyl)-3,4-dihydro-1H-pyrrolo[2,1-c][1,4]oxazine-6-carbonyl]-pyrrolidin-2-yl}-acetic acid ethyl ester] | 0.13 |  |
| 3,4-Dihydro-1H-pyrrolo[2,1-c][1,4]oxazine-6,8-dicarboxylic acid 6-{[(R)-1-(4-fluoro-phenyl)-ethyl]-amide} 8-{[(S)-1-(5-methoxy-pyrazin-2-yl)-propyl]-amide} [16dv] | 0.19 |  |
